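96-well plates; 48 h exposure; 5 concentrations. Endpoints by linear interpolation between flanking doses. Not reached: highest tested concentration assigned. GI50 marks 50% less growth.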 Calls of active or inactive are those of the source. Cut-off read from the data, not from the text of the source: active = GI50 up to about 1.1 µM and inactive = higher.
How the values were obtained:
Assay in all cases: DTP human tumour cell line panel, 48 h
[1] = test system: A498
[2] = test system: KM12
[3] = test system: T47D
[4] = test system: K562
[5] = test system: SF-268
[6] = test system: Hs-578T
[7] = test system: SK-MEL-28
[8] = test system: COLO 205
[9] = test system: SK-MEL-2
[10] = test system: BT-549
[11] = test system: RPMI-8226
[12] = test system: M14
[13] = test system: NCI-H226
[14] = test system: SF-295
[15] = test system: NCI-H522
[16] = test system: SF-539
[17] = test system: SNB-75
[18] = test system: SK-MEL-5
[19] = test system: HCT-15
[20] = test system: U-251
[21] = test system: HCT-116
[22] = test system: OVCAR-5
[23] = test system: HCC 2998
[24] = test system: A549
[25] = test system: SNB-19
[26] = test system: EKVX
[27] = test system: HOP-62
[28] = test system: RXF 393
[29] = test system: SW-620
[30] = test system: PC-3
[31] = test system: UACC-62
[32] = test system: TK-10
[33] = test system: 786-0
[34] = test system: SN12C
[35] = test system: IGROV-1
[36] = test system: MDA-MB-231
[37] = test system: UACC-257
[38] = test system: LOX IMVI
[39] = test system: OVCAR-3
[40] = test system: Malme-3M
[41] = test system: UO-31
[42] = test system: HOP-92
[43] = test system: MCF7
[44] = test system: ACHN
[45] = test system: MDA-N
[46] = test system: NCI-H460
[47] = test system: SK-OV-3
[48] = test system: CAKI-1
[49] = test system: NCI/ADR-RES
[50] = test system: OVCAR-8
[51] = test system: HT-29
[52] = test system: OVCAR-4
[53] = test system: NCI-H23
[54] = test system: MDA-MB-435
[55] = test system: SR
[56] = test system: MOLT-4
[57] = test system: DU-145
[58] = test system: CCRF-CEM
[59] = test system: HL-60

## N#Cc1c(N)c(-c2ccc(Cl)cc2)c(F)c2ccccc12
[1]
  GI50: > 100 µM (inactive)
[2]
  GI50: > 100 µM (inactive)
[3]
  GI50: > 100 µM (inactive)
[4]
  GI50: > 100 µM (inactive)
[5]
  GI50: 9.82 µM (inactive)
[6]
  GI50: 7.35 µM (inactive)
[7]
  GI50: > 100 µM (inactive)
[8]
  GI50: > 100 µM (inactive)
[9]
  GI50: > 100 µM (inactive)
[10]
  GI50: > 100 µM (inactive)
[11]
  GI50: 6.65 µM (inactive)
[12]
  GI50: > 100 µM (inactive)
[13]
  GI50: > 100 µM (inactive)
[14]
  GI50: > 100 µM (inactive)
[15]
  GI50: > 100 µM (inactive)
[16]
  GI50: > 100 µM (inactive)
[17]
  GI50: 11.1 µM (inactive)
[18]
  GI50: > 100 µM (inactive)
[19]
  GI50: > 100 µM
[20]
  GI50: 96.4 µM (inactive)
[21]
  GI50: > 100 µM (inactive)
[22]
  GI50: > 100 µM (inactive)
[23]
  GI50: > 100 µM (inactive)
[24]
  GI50: > 100 µM (inactive)
[25]
  GI50: > 100 µM (inactive)
[26]
  GI50: 7 µM (inactive)
[27]
  GI50: > 100 µM (inactive)
[28]
  GI50: 18.8 µM (inactive)
[29]
  GI50: > 100 µM (inactive)
[30]
  GI50: > 100 µM (inactive)
[31]
  GI50: > 100 µM (inactive)
[32]
  GI50: > 100 µM (inactive)
[33]
  GI50: > 100 µM (inactive)
[34]
  GI50: > 100 µM (inactive)
[35]
  GI50: > 100 µM (inactive)
[36]
  GI50: 66.2 µM (inactive)
[37]
  GI50: > 100 µM (inactive)
[38]
  GI50: 94.2 µM (inactive)
[39]
  GI50: > 100 µM (inactive)
[40]
  GI50: > 100 µM (inactive)
[41]
  GI50: 3.2 µM (inactive)
[42]
  GI50: 3.98 µM (inactive)
[43]
  GI50: 6.49 µM (inactive)
[44]
  GI50: > 100 µM (inactive)
[45]
  GI50: > 100 µM (inactive)
[46]
  GI50: > 100 µM (inactive)
[47]
  GI50: > 100 µM (inactive)
[48]
  GI50: > 100 µM (inactive)
[49]
  GI50: > 100 µM (inactive)
[50]
  GI50: > 100 µM (inactive)
[51]
  GI50: 75.5 µM (inactive)
[52]
  GI50: > 100 µM (inactive)
[53]
  GI50: > 100 µM (inactive)
[54]
  GI50: > 100 µM (inactive)

## O=C(c1c(F)c(F)c(F)c(F)c1F)n1c(=S)n(C(=O)c2c(F)c(F)c(F)c(F)c2F)c2ccccc21
[2]
  GI50: > 100 µM (inactive)
[3]
  GI50: 82.4 µM (inactive)
[4]
  GI50: 22.2 µM (inactive)
[5]
  GI50: 39.9 µM (inactive)
[6]
  GI50: > 100 µM (inactive)
[55]
  GI50: 39.9 µM (inactive)
[7]
  GI50: 59.2 µM (inactive)
[8]
  GI50: 49.9 µM (inactive)
[9]
  GI50: > 100 µM (inactive)
[10]
  GI50: > 100 µM (inactive)
[11]
  GI50: 44.4 µM (inactive)
[12]
  GI50: > 100 µM (inactive)
[14]
  GI50: > 100 µM (inactive)
[16]
  GI50: > 100 µM (inactive)
[17]
  GI50: > 100 µM (inactive)
[18]
  GI50: > 100 µM (inactive)
[19]
  GI50: > 100 µM
[20]
  GI50: > 100 µM (inactive)
[21]
  GI50: > 100 µM (inactive)
[22]
  GI50: > 100 µM (inactive)
[23]
  GI50: > 100 µM (inactive)
[25]
  GI50: > 100 µM (inactive)
[27]
  GI50: > 100 µM (inactive)
[29]
  GI50: 46.5 µM (inactive)
[30]
  GI50: 64 µM (inactive)
[31]
  GI50: 24.7 µM (inactive)
[32]
  GI50: > 100 µM (inactive)
[33]
  GI50: > 100 µM (inactive)
[34]
  GI50: > 100 µM (inactive)
[35]
  GI50: > 100 µM (inactive)
[36]
  GI50: > 100 µM (inactive)
[56]
  GI50: 20 µM (inactive)
[37]
  GI50: > 100 µM (inactive)
[38]
  GI50: 35.7 µM (inactive)
[57]
  GI50: 80.5 µM (inactive)
[41]
  GI50: > 100 µM (inactive)
[42]
  GI50: > 100 µM (inactive)
[43]
  GI50: 69.8 µM (inactive)
[44]
  GI50: > 100 µM (inactive)
[45]
  GI50: > 100 µM (inactive)
[46]
  GI50: > 100 µM (inactive)
[58]
  GI50: 12.3 µM (inactive)
[47]
  GI50: > 100 µM (inactive)
[50]
  GI50: > 100 µM (inactive)
[51]
  GI50: > 100 µM (inactive)
[52]
  GI50: 95.5 µM (inactive)
[59]
  GI50: 12.9 µM (inactive)
[54]
  GI50: > 10 µM (inactive)

## COc1ccc(NC(=O)C(C#N)=C(SC)SC)cc1
[1]
  GI50: > 100 µM (inactive)
[3]
  GI50: > 100 µM (inactive)
[4]
  GI50: > 100 µM (inactive)
[5]
  GI50: > 100 µM (inactive)
[6]
  GI50: > 100 µM (inactive)
[55]
  GI50: > 100 µM (inactive)
[7]
  GI50: > 100 µM (inactive)
[8]
  GI50: > 100 µM (inactive)
[9]
  GI50: > 100 µM (inactive)
[10]
  GI50: > 100 µM (inactive)
[11]
  GI50: > 100 µM (inactive)
[12]
  GI50: > 100 µM (inactive)
[13]
  GI50: > 100 µM (inactive)
[14]
  GI50: > 100 µM (inactive)
[15]
  GI50: 57.1 µM (inactive)
[16]
  GI50: > 100 µM (inactive)
[18]
  GI50: > 100 µM (inactive)
[19]
  GI50: > 100 µM
[20]
  GI50: > 100 µM (inactive)
[21]
  GI50: > 100 µM (inactive)
[22]
  GI50: > 100 µM (inactive)
[23]
  GI50: > 100 µM (inactive)
[24]
  GI50: > 100 µM (inactive)
[25]
  GI50: > 100 µM (inactive)
[26]
  GI50: > 100 µM (inactive)
[27]
  GI50: > 100 µM (inactive)
[28]
  GI50: > 100 µM (inactive)
[29]
  GI50: > 100 µM (inactive)
[30]
  GI50: > 100 µM (inactive)
[31]
  GI50: > 100 µM (inactive)
[32]
  GI50: > 100 µM (inactive)
[33]
  GI50: > 100 µM (inactive)
[34]
  GI50: > 100 µM (inactive)
[35]
  GI50: 58.6 µM (inactive)
[36]
  GI50: > 100 µM (inactive)
[56]
  GI50: > 100 µM (inactive)
[37]
  GI50: > 100 µM (inactive)
[38]
  GI50: > 100 µM (inactive)
[39]
  GI50: > 100 µM (inactive)
[40]
  GI50: > 100 µM (inactive)
[57]
  GI50: > 100 µM (inactive)
[41]
  GI50: 60.3 µM (inactive)
[42]
  GI50: 15.8 µM (inactive)
[43]
  GI50: > 100 µM (inactive)
[44]
  GI50: > 100 µM (inactive)
[45]
  GI50: > 100 µM (inactive)
[46]
  GI50: > 100 µM (inactive)
[58]
  GI50: > 100 µM (inactive)
[47]
  GI50: > 100 µM (inactive)
[48]
  GI50: 50.5 µM (inactive)
[51]
  GI50: > 100 µM (inactive)
[52]
  GI50: > 100 µM (inactive)
[59]
  GI50: 75.3 µM (inactive)
[53]
  GI50: > 100 µM (inactive)
[54]
  GI50: > 100 µM (inactive)

## CC1=C(C(=O)NC2CCCCC2)CC(C(=O)NC2CCCCC2)=C(C)N1
[1]
  GI50: 65.9 µM (inactive)
[2]
  GI50: > 100 µM (inactive)
[3]
  GI50: 58.6 µM (inactive)
[4]
  GI50: 57.4 µM (inactive)
[5]
  GI50: 39.9 µM (inactive)
[6]
  GI50: 24.9 µM (inactive)
[55]
  GI50: > 100 µM (inactive)
[7]
  GI50: > 100 µM (inactive)
[8]
  GI50: > 100 µM (inactive)
[9]
  GI50: > 100 µM (inactive)
[10]
  GI50: > 100 µM (inactive)
[11]
  GI50: > 100 µM (inactive)
[12]
  GI50: > 100 µM (inactive)
[14]
  GI50: > 100 µM (inactive)
[15]
  GI50: > 100 µM (inactive)
[16]
  GI50: > 100 µM (inactive)
[17]
  GI50: 13.7 µM (inactive)
[18]
  GI50: > 100 µM (inactive)
[19]
  GI50: > 100 µM
[20]
  GI50: > 100 µM (inactive)
[21]
  GI50: > 100 µM (inactive)
[22]
  GI50: > 100 µM (inactive)
[23]
  GI50: > 100 µM (inactive)
[24]
  GI50: > 100 µM (inactive)
[25]
  GI50: > 100 µM (inactive)
[26]
  GI50: > 100 µM (inactive)
[27]
  GI50: > 100 µM (inactive)
[28]
  GI50: > 100 µM (inactive)
[29]
  GI50: > 100 µM (inactive)
[30]
  GI50: 77.4 µM (inactive)
[31]
  GI50: > 100 µM (inactive)
[32]
  GI50: 39.2 µM (inactive)
[33]
  GI50: > 100 µM (inactive)
[34]
  GI50: > 100 µM (inactive)
[35]
  GI50: > 100 µM (inactive)
[36]
  GI50: > 100 µM (inactive)
[56]
  GI50: > 100 µM (inactive)
[37]
  GI50: > 100 µM (inactive)
[38]
  GI50: > 100 µM (inactive)
[39]
  GI50: > 100 µM (inactive)
[40]
  GI50: > 100 µM (inactive)
[57]
  GI50: > 100 µM (inactive)
[41]
  GI50: > 100 µM (inactive)
[42]
  GI50: 33 µM (inactive)
[43]
  GI50: > 100 µM (inactive)
[44]
  GI50: > 100 µM (inactive)
[45]
  GI50: > 100 µM (inactive)
[46]
  GI50: > 100 µM (inactive)
[58]
  GI50: > 100 µM (inactive)
[47]
  GI50: > 100 µM (inactive)
[48]
  GI50: > 100 µM (inactive)
[52]
  GI50: > 100 µM (inactive)
[59]
  GI50: 71.6 µM (inactive)
[53]
  GI50: > 100 µM (inactive)
[54]
  GI50: > 100 µM (inactive)

— ChEMBL document CHEMBL1201862, “PubChem BioAssay data set” (2004)
